Results reported in the OligoGym collection.
Where “and” joins values, the source holds several entries; their conditions need not be identical. Equal entries are not always repeated. HELM strings list units from the 5' end as sugar, base in round brackets, then linkage (d deoxyribose, r ribose, m 2'-O-methyl, p phosphodiester). Strings are as the collection lists them, not checked against the first reports. ss, as = sense and antisense strand; [lna] = locked nucleic acid (LNA); [una] = unlocked nucleic acid; [fl2r] = 2'-fluoro

settings: siRNA
Further: test system not given here.

Substance	target mRNA knockdown
RNA1{r(C)p.r(U)p.r(G)p.r(G)p.r(U)p.r(A)p.r(A)p.r(A)p.r(G)p.r(C)p.r(A)p.r(U)p.r(U)p.r(C)p.r(A)p.r(G)p.r(U)p.r(A)p.r(U)p.d(T)p.d(T)}|RNA2{r(A)p.r(U)p.r(A)p.r(C)p.r(U)p.r(G)p.r(A)p.r(A)p.r(U)p.r(G)p.r(C)p.r(U)p.r(U)p.r(U)p.r(A)p.r(C)p.r(C)p.r(A)p.r(G)p.d(T)p.d(T)}$$$RNA1{StrandType:ss}|RNA2{StrandType:as}$	82%
RNA1{r(G)p.r(G)p.r(A)p.r(A)p.r(G)p.r(U)p.r(C)p.m(C)p.m(A)p.r(C)p.r(C)p.m(U)p.m(U)p.r(C)p.r(U)p.r(C)p.r(C)p.r(G)p.r(A)p.r(T)p.r(T)}|RNA2{r(U)p.r(C)p.r(G)p.r(G)p.r(A)p.r(G)p.r(A)p.r(A)p.r(G)p.r(G)p.m(U)p.r(G)p.r(G)p.r(A)p.r(C)p.r(U)p.r(U)p.r(C)p.r(C)p.r(T)p.r(T)}$$$RNA1{StrandType:ss}|RNA2{StrandType:as}$	51%
RNA1{r(G)p.r(A)p.r(C)p.r(G)p.r(U)p.r(A)p.r(A)p.r(A)p.r(C)p.r(G)p.r(G)p.r(C)p.r(C)p.r(A)p.r(C)p.r(A)p.r(A)p.r(G)p.r(U)p.r(U)p.r(C)}|RNA2{[fl2r](A)p.m(C)p.[fl2r](U)p.m(U)p.[fl2r](G)p.m(U)p.[fl2r](G)p.m(G)p.[fl2r](C)p.m(C)p.[fl2r](G)p.m(U)p.[fl2r](U)p.m(U)p.[fl2r](A)p.m(C)p.[fl2r](G)p.m(U)p.[fl2r](C)p.m(G)p.[fl2r](C)}$$$RNA1{StrandType:ss}|RNA2{StrandType:as}$	73.8%
RNA1{m(G)p.r(A)p.m(A)p.r(A)p.m(A)p.r(C)p.m(G)p.r(C)p.m(U)p.r(U)p.m(G)p.r(U)p.m(A)p.r(A)p.m(A)p.r(G)p.m(C)p.r(C)p.m(G)p.r(T)p.r(T)}|RNA2{r(C)p.r(G)p.r(G)p.r(C)p.r(U)p.r(U)p.r(U)p.m(A)p.r(C)p.m(A)p.m(A)p.r(G)p.r(C)p.r(G)p.r(U)p.r(U)p.r(U)p.r(U)p.r(C)p.r(T)p.r(T)}$$$RNA1{StrandType:ss}|RNA2{StrandType:as}$	23%
RNA1{r(A)p.r(A)p.r(A)p.r(C)p.r(C)p.r(U)p.m(C)p.r(A)p.r(G)p.r(C)p.r(C)p.r(C)p.m(U)p.r(A)p.r(A)p.r(C)p.r(G)p.r(G)p.r(U)p.r(T)p.r(T)}|RNA2{r(A)p.r(C)p.r(C)p.r(G)p.r(U)p.m(U)p.r(A)p.r(G)p.r(G)p.r(G)p.r(C)p.m(U)p.r(G)p.r(A)p.r(G)p.r(G)p.r(U)p.r(U)p.r(U)p.r(T)p.r(T)}$$$RNA1{StrandType:ss}|RNA2{StrandType:as}$	70%
RNA1{r(A)p.r(U)p.r(C)p.m(U)p.r(A)p.r(C)p.r(C)p.r(C)p.r(A)p.r(G)p.r(C)p.r(U)p.r(C)p.r(U)p.r(C)p.r(C)p.r(C)p.r(U)p.r(U)p.r(T)p.r(T)}|RNA2{r(A)p.r(A)p.r(G)p.r(G)p.r(G)p.r(A)p.r(G)p.r(A)p.r(G)p.r(C)p.r(U)p.r(G)p.r(G)p.r(G)p.m(U)p.r(A)p.r(G)p.r(A)p.r(U)p.r(T)p.r(T)}$$$RNA1{StrandType:ss}|RNA2{StrandType:as}$	77%
RNA1{m(A)p.r(G)p.m(A)p.r(A)p.m(G)p.r(U)p.m(A)p.r(C)p.m(C)p.r(A)p.m(G)p.r(G)p.m(A)p.r(G)p.m(G)p.r(C)p.m(G)p.r(U)p.m(U)p.r(T)p.r(T)}|RNA2{r(A)p.r(A)p.r(C)p.r(G)p.r(C)p.r(C)p.r(U)p.r(C)p.r(C)p.r(U)p.r(G)p.r(G)p.r(U)p.r(A)p.r(C)p.r(U)p.r(U)p.r(C)p.r(U)p.r(T)p.r(T)}$$$RNA1{StrandType:ss}|RNA2{StrandType:as}$	24%
RNA1{r(C)p.r(G)p.r(U)p.r(A)p.r(C)p.r(G)p.r(C)p.r(G)p.r(G)p.r(A)p.r(A)p.r(U)p.r(A)p.r(C)p.r(U)p.r(U)p.r(C)p.r(G)p.r(A)p.r(T)p.r(T)}|RNA2{m(U)p.m(C)p.m(G)p.m(A)p.m(A)p.m(G)p.r(U)p.r(A)p.r(U)p.r(U)p.r(C)p.r(C)p.r(G)p.r(C)p.r(G)p.r(U)p.r(A)p.r(C)p.r(G)p.r(T)p.r(T)}$$$RNA1{StrandType:ss}|RNA2{StrandType:as}$	10.3%
RNA1{r(A)p.[fl2r](A)p.r(G)p.r(G)p.r(C)p.[fl2r](C)p.r(A)p.r(A)p.r(C)p.r(C)p.r(G)p.r(A)p.[fl2r](U)p.r(A)p.r(C)p.r(U)p.r(U)p.r(C)p.r(U)p.r(T)p.r(T)}|RNA2{r(A)p.r(G)p.r(A)p.r(A)p.r(G)p.[fl2r](U)p.r(A)p.r(U)p.r(C)p.r(G)p.r(G)p.r(U)p.[fl2r](U)p.r(G)p.r(G)p.r(C)p.r(C)p.r(U)p.r(U)p.r(T)p.r(T)}$$$RNA1{StrandType:ss}|RNA2{StrandType:as}$	68%
RNA1{m(U)p.r(A)p.r(A)p.r(A)p.r(G)p.r(C)p.m(U)p.r(G)p.r(G)p.r(A)p.r(A)p.r(A)p.r(G)p.r(G)p.r(G)p.r(A)p.r(C)p.r(G)p.r(G)p.r(T)p.r(T)}|RNA2{r(C)p.r(C)p.r(G)p.r(U)p.r(C)p.r(C)p.r(C)p.r(U)p.r(U)p.r(U)p.r(C)p.m(C)p.r(A)p.r(G)p.r(C)p.r(U)p.r(U)p.m(U)p.r(A)p.r(T)p.r(T)}$$$RNA1{StrandType:ss}|RNA2{StrandType:as}$	65%
RNA1{r(U)p.r(C)p.r(C)p.r(U)p.r(A)p.r(C)p.r(A)p.r(G)p.r(C)p.r(A)p.r(C)p.r(A)p.r(A)p.r(C)p.r(A)p.r(A)p.r(A)p.r(U)p.r(G)p.d(U)p.d(G)}|RNA2{r(C)p.r(A)p.r(U)p.r(U)p.r(U)p.r(G)p.r(U)p.r(U)p.r(G)p.r(U)p.r(G)p.r(C)p.r(U)p.r(G)p.r(U)p.r(A)p.r(G)p.r(G)p.r(A)p.d(A)p.d(G)}$$$RNA1{StrandType:ss}|RNA2{StrandType:as}$	25% and 0%
RNA1{r(G)p.r(U)p.r(A)p.r(U)p.r(G)p.r(A)p.r(C)p.r(C)p.r(G)p.r(A)p.r(C)p.r(U)p.r(A)p.r(C)p.r(G)p.r(C)p.r(G)p.r(U)p.r(A)p.r(T)p.r(T)}|RNA2{r(U)p.r(U)p.r(C)p.r(A)p.r(G)p.r(U)p.r(G)p.r(U)p.r(G)p.r(A)p.r(U)p.r(G)p.r(A)p.r(C)p.[una](A)p.r(C)p.r(U)p.r(U)p.r(G)p.r(T)p.r(T)}$$$RNA1{StrandType:ss}|RNA2{StrandType:as}$	86%
RNA1{r(A)p.r(A)p.r(C)p.r(U)p.r(C)p.m(U)p.r(A)p.r(C)p.m(U)p.r(G)p.m(U)p.r(G)p.r(G)p.r(A)p.r(G)p.r(U)p.r(C)p.r(G)p.r(G)p.r(T)p.r(T)}|RNA2{r(C)p.r(C)p.r(G)p.r(A)p.r(C)p.r(U)p.r(C)p.m(C)p.r(A)p.r(C)p.r(A)p.r(G)p.m(U)p.r(A)p.r(G)p.r(A)p.r(G)p.r(U)p.r(U)p.r(T)p.r(T)}$$$RNA1{StrandType:ss}|RNA2{StrandType:as}$	68%
RNA1{r(A)p.r(G)p.r(A)p.r(G)p.r(G)p.r(A)p.r(C)p.r(C)p.m(U)p.r(A)p.r(G)p.r(A)p.r(A)p.r(G)p.r(G)p.r(C)p.r(G)p.r(G)p.r(C)p.r(T)p.r(T)}|RNA2{r(G)p.r(C)p.r(C)p.r(G)p.r(C)p.r(C)p.r(U)p.r(U)p.r(C)p.m(U)p.r(A)p.r(G)p.r(G)p.r(U)p.r(C)p.r(C)p.r(U)p.r(C)p.r(U)p.r(T)p.r(T)}$$$RNA1{StrandType:ss}|RNA2{StrandType:as}$	89%
RNA1{r(G)p.r(A)p.r(A)p.r(A)p.r(C)p.m(U)p.m(G)p.r(G)p.m(U)p.r(A)p.r(C)p.m(U)p.r(U)p.r(U)p.r(C)p.r(C)p.r(C)p.r(C)p.r(C)p.r(T)p.r(T)}|RNA2{r(G)p.r(G)p.r(G)p.r(G)p.r(G)p.r(A)p.r(A)p.r(A)p.r(G)p.m(U)p.r(A)p.r(C)p.m(C)p.m(A)p.r(G)p.r(U)p.r(U)p.r(U)p.r(C)p.r(T)p.r(T)}$$$RNA1{StrandType:ss}|RNA2{StrandType:as}$	85%
RNA1{r(G)p.r(A)p.r(A)p.r(G)p.r(A)p.r(G)p.r(C)p.r(C)p.r(U)p.r(A)p.m(C)p.r(A)p.m(C)p.r(A)p.r(A)p.r(C)p.r(C)p.r(C)p.r(U)p.r(T)p.r(T)}|RNA2{r(A)p.r(G)p.r(G)p.r(G)p.r(U)p.m(U)p.r(G)p.r(U)p.r(G)p.m(U)p.r(A)p.r(G)p.r(G)p.r(C)p.r(U)p.r(C)p.r(U)p.r(U)p.r(C)p.r(T)p.r(T)}$$$RNA1{StrandType:ss}|RNA2{StrandType:as}$	74%
RNA1{m(U)p.r(C)p.m(C)p.r(U)p.m(A)p.r(G)p.m(C)p.r(U)p.m(G)p.r(U)p.m(C)p.r(U)p.m(U)p.r(G)p.m(U)p.r(C)p.m(C)p.r(C)p.m(U)p.r(T)p.r(T)}|RNA2{r(A)p.r(G)p.r(G)p.r(G)p.r(A)p.r(C)p.r(A)p.r(A)p.r(G)p.r(A)p.r(C)p.r(A)p.r(G)p.r(C)p.r(U)p.r(A)p.r(G)p.r(G)p.r(A)p.r(T)p.r(T)}$$$RNA1{StrandType:ss}|RNA2{StrandType:as}$	27%
RNA1{r(G)p.r(A)p.r(G)p.r(G)p.r(A)p.r(A)p.r(G)p.r(A)p.m(U)p.r(G)p.r(A)p.r(G)p.r(U)p.m(U)p.r(G)p.m(U)p.r(A)p.r(C)p.r(C)p.r(T)p.r(T)}|RNA2{r(G)p.r(G)p.r(U)p.r(A)p.m(C)p.r(A)p.r(A)p.r(C)p.r(U)p.m(C)p.r(A)p.r(U)p.r(C)p.r(U)p.r(U)p.r(C)p.r(C)p.r(U)p.r(C)p.r(T)p.r(T)}$$$RNA1{StrandType:ss}|RNA2{StrandType:as}$	76%
RNA1{r(C)p.r(U)p.r(U)p.r(A)p.r(C)p.r(G)p.r(C)p.r(U)p.r(G)p.r(A)p.r(G)p.r(U)p.r(A)p.r(C)p.r(U)p.r(U)p.r(C)p.r(G)p.r(A)p.d(T)p.d(T)}|RNA2{r(U)p.r(C)p.r(G)p.r(A)p.r(A)p.r(G)p.r(U)p.r(A)p.r(C)p.[lna](T)p.r(C)p.r(A)p.r(G)p.r(C)p.r(G)p.r(U)p.r(A)p.r(A)p.r(G)p.[lna](T)p.r(T)}$$$RNA1{StrandType:ss}|RNA2{StrandType:as}$	93%
RNA1{m(C)p.r(C)p.m(U)p.r(C)p.m(C)p.r(C)p.m(C)p.r(A)p.m(U)p.r(C)p.m(C)p.r(C)p.m(C)p.r(U)p.m(U)p.r(U)p.m(U)p.r(A)p.m(A)p.r(T)p.r(T)}|RNA2{r(U)p.r(U)p.r(A)p.r(A)p.r(A)p.r(A)p.r(G)p.r(G)p.r(G)p.r(G)p.r(A)p.r(U)p.m(G)p.r(G)p.m(G)p.r(G)p.m(A)p.r(G)p.m(G)p.r(T)p.r(T)}$$$RNA1{StrandType:ss}|RNA2{StrandType:as}$	48%
